Assay results taken from patent US20110110940A1, “Methods for Enhancing the Efficacy of Vascular Disrupting Agents” (OXIGENE, INC., priority 2008, published 2011).

Test system: GFP+ bone marrow cells in the viable tumor rim of LLC tumors
Assay: Homing/invasion of GFP+ bone marrow cells (CEPs) to the viable tumor rim and incorporation into CD31+ tumor vasculature, confocal microscopy of LLC tumor sections
Type: in vivo, mice
Conditions: 3 days after treatment
From the text: Integrin ∘4β1 (VLA4) promotes the homing of circulating cells to the α4β1 ligand binding (VCAM) expressed at the tumor site (Jin et al. 2006. J Clin Invest 116:652-662). […] We determined whether α4β1 integrin contributes to CEP and possibly other types of bone-marrow pro-angiogenic cell invasion and homing to the viable tumor rim after VDA treatment. To this end, green fluorescent protein (GFP)positive bone marrow cells obtained from syngeneic UBI/GFP/BL6 donor mice (The Jackson Laboratory, Bar Harbor, Me.) were transplanted into lethally irradiated C57Bl/6 recipient mice (as described in Theise, et al. 2000. Hepatology 31:235-240). Three weeks later, mice were subcutaneously (s.c.) implanted with 0.5×10^6 Lewis Lung Carcinoma (LLC) cells (ATCC, Manassas, Va.).
When tumors reached 500 mm^3, mice were treated with an integrin α4β1 specific blocking antibody (Jin 2006), CA1P, or a combination of the two agents. After 3 days, tumor volumes were measured, mice were sacrificed and tumors were removed for the evaluation of necrosis (FIG. 1A) and incorporation of bone marrow cells to the tumor vasculature (FIG. 1B). […] FIG. 1C provides tumor volumes measured three days after treatment and normalized to untreated control tumors. *: 0.05>p>0.01; **: p<0.01. Tumor size was assessed with Vernier calipers by using the formula width^2×length×0.5. […]

In the case of COc1cc(/C=C\c2ccc(OC)c(OP(=O)(O)O)c2OP(=O)(O)O)cc(OC)c1OC [CA1P, combretastatin A-1 diphosphate], the “invasion/homing of GFP+ cells (bone marrow cells) in the viable tumor rim (FIG. 1B)” value is reported as “massive invasion of GFP^+ cells” and the “incorporation of GFP+ cells into blood vessels (colocalization of GFP+ and CD31+ cells, FIG. 1B)” value (CD31 staining) is reported as “some of which were found to incorporate into blood vessels”.
